In patent US4684664A, “Derivatives of β-(4-isocyano-1,2,3,4-diepoxycyclopentyl) acrylic acid” (Kureha Kagaku Kogyo Kabushiki Kaisha, priority 1984, dated 1987):
In brackets after ≈: the same amount, converted by molar mass.

Experiments:
Format in all cases: cell-based
[1] = test system: Staphylococcus aureus FDA 209PJc-1; test: Antibacterial activity, agar-dilution MIC, organism No. 1; conditions: Staphylococcus aureus, FDA209PJC1; Organism No. 1, bouillon-agar; read-out: Minimum Inhibitory Concentration
Method in brief: (§1)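 Specimen is incorporated into bouillon-agar medium at graded levels and the organisms are tested on these plates. The lowest level preventing growth is taken as the MIC (μg/ml of medium).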

[2] = test system: Staphylococcus aureus Terajima; test: Antibacterial activity, agar-dilution MIC, organism No. 2; conditions: Staphylococcus aureus; Organism No. 2, bouillon-agar; read-out: Minimum Inhibitory Concentration
Method in brief: as §1

[3] = test system: Staphylococcus aureus MS 353; test: Antibacterial activity, agar-dilution MIC, organism No. 3; conditions: Staphylococcus aureus, MS353; Organism No. 3, bouillon-agar; read-out: Minimum Inhibitory Concentration
Method in brief: as §1

[4] = test system: Streptococcus pyogenes Cook; test: Antibacterial activity, agar-dilution MIC, organism No. 4; conditions: Streptococcus pyogenes; Organism No. 4, bouillon-agar; read-out: Minimum Inhibitory Concentration
Method in brief: as §1

[5] = test system: Escherichia coli NIHJ-JC-2; test: Antibacterial activity, agar-dilution MIC, organism No. 5; conditions: Escherichia coli, NIHJJC2; Organism No. 5, bouillon-agar; read-out: Minimum Inhibitory Concentration
Method in brief: as §1

[6] = test system: Escherichia coli K12 C600 IAM 1264; test: Antibacterial activity, agar-dilution MIC, organism No. 6; conditions: Escherichia coli, IAM1264; Organism No. 6, bouillon-agar; read-out: Minimum Inhibitory Concentration
Method in brief: as §1

[7] = test system: Klebsiella pneumoniae PCI-602; test: Antibacterial activity, agar-dilution MIC, organism No. 7; conditions: Klebsiella pneumoniae, PCI602; Organism No. 7, bouillon-agar; read-out: Minimum Inhibitory Concentration
Method in brief: as §1

[8] = test system: Salmonella typhimurium IID 971; test: Antibacterial activity, agar-dilution MIC, organism No. 8; conditions: Salmonella enterica; Organism No. 8, bouillon-agar; read-out: Minimum Inhibitory Concentration
Method in brief: as §1

Salmonella typhi 901 = test: Antibacterial activity, agar-dilution MIC, organism No. 9; conditions: Salmonella enterica, TYPHI, read-out: Minimum Inhibitory Concentration
Method in brief: as §1

[9] = test system: Salmonella paratyphi-A 1015; test: Antibacterial activity, agar-dilution MIC, organism No. 10; conditions: Salmonella enterica, PARATYPHI, read-out: Minimum Inhibitory Concentration
Method in brief: as §1

[10] = test system: Salmonella shottmuelleri 8006; test: Antibacterial activity, agar-dilution MIC, organism No. 11; conditions: Salmonella, 8006; Organism No. 11, bouillon-agar; read-out: Minimum Inhibitory Concentration
Method in brief: as §1

[11] = test system: Salmonella enteritidis G 14; test: Antibacterial activity, agar-dilution MIC, organism No. 12; conditions: Salmonella enterica, ENTERITIDIS; Organism No. 12, bouillon-agar; read-out: Minimum Inhibitory Concentration
Method in brief: as §1

[12] = test system: Serratia marcescens IAM 1184; test: Antibacterial activity, agar-dilution MIC, organism No. 13; conditions: Serratia marcescens, IAM1184; Organism No. 13, bouillon-agar; read-out: Minimum Inhibitory Concentration
Method in brief: as §1

[13] = test system: Bacillus subtilis ATCC 6633; test: Antibacterial activity, agar-dilution MIC, organism No. 14; conditions: Bacillus subtilis, ATCC6633; Organism No. 14, bouillon-agar; read-out: Minimum Inhibitory Concentration
Method in brief: as §1

[14] = test system: Pseudomonas aeruginosa IFO 3445; test: Antibacterial activity, agar-dilution MIC, organism No. 15; conditions: Pseudomonas aeruginosa, IFO3445; Organism No. 15, bouillon-agar; read-out: Minimum Inhibitory Concentration
Method in brief: as §1

[15] = test system: Pseudomonas aeruginosa NCTC 10490; test: Antibacterial activity, agar-dilution MIC, organism No. 16; conditions: Pseudomonas aeruginosa, NCTC10490; Organism No. 16, bouillon-agar; read-out: Minimum Inhibitory Concentration
Method in brief: as §1

[16] = test system: Pseudomonas aeruginosa PAO 1; test: Antibacterial activity, agar-dilution MIC, organism No. 17; conditions: Pseudomonas aeruginosa, PAO1; Organism No. 17, bouillon-agar; read-out: Minimum Inhibitory Concentration
Method in brief: as §1

[17] = test system: Proteus morganii IFO 3848; test: Antibacterial activity, agar-dilution MIC, organism No. 18; conditions: Morganella morganii, IFO3848; Organism No. 18, bouillon-agar; read-out: Minimum Inhibitory Concentration
Method in brief: as §1

[18] = test system: Proteus mirabilis IFO 3849; test: Antibacterial activity, agar-dilution MIC, organism No. 19; conditions: Proteus mirabilis, IFO3849; Organism No. 19, bouillon-agar; read-out: Minimum Inhibitory Concentration
Method in brief: as §1

Proteus vulgaris OX-19 = test: Antibacterial activity, agar-dilution MIC, organism No. 20; conditions: Proteus vulgaris, OX19; Organism No. 20, bouillon-agar; read-out: Minimum Inhibitory Concentration
Method in brief: as §1

Proteus vulgaris HX-19 = test: Antibacterial activity, agar-dilution MIC, organism No. 21; conditions: Proteus vulgaris, HX19; Organism No. 21, bouillon-agar; read-out: Minimum Inhibitory Concentration
Method in brief: as §1

[19] = test system: Proteus rettgeri IFO 3850; test: Antibacterial activity, agar-dilution MIC, organism No. 22; conditions: Providencia rettgeri, IFO3850; Organism No. 22, bouillon-agar; read-out: Minimum Inhibitory Concentration
Method in brief: as §1

[20] = test system: Enterobacter aerogenes ATCC 13048; test: Antibacterial activity, agar-dilution MIC, organism No. 23; conditions: Klebsiella aerogenes, ATCC13048; Organism No. 23, bouillon-agar; read-out: Minimum Inhibitory Concentration
Method in brief: as §1

Enterobacter cloacae 963 = test: Antibacterial activity, agar-dilution MIC, organism No. 24; conditions: Enterobacter cloacae, 963; Organism No. 24, bouillon-agar; read-out: Minimum Inhibitory Concentration
Method in brief: as §1

[21] = test system: Micrococcus luteus ATCC 9341; test: Antibacterial activity, agar-dilution MIC, organism No. 25; conditions: Micrococcus luteus, ATCC9341; Organism No. 25, bouillon-agar; read-out: Minimum Inhibitory Concentration
Method in brief: as §1

[22] = test system: Streptococcus pyogenes IFO 3340; test: Antibacterial activity, agar-dilution MIC, organism No. 26; conditions: Streptococcus pyogenes, IFO3340; Organism No. 26, bouillon-agar; read-out: Minimum Inhibitory Concentration
Method in brief: as §1

[23] = test system: Streptococcus faecium IFO 3826; test: Antibacterial activity, agar-dilution MIC, organism No. 27; conditions: Enterococcus faecium, IFO3826; Organism No. 27, bouillon-agar; read-out: Minimum Inhibitory Concentration
Method in brief: as §1

[24] = test system: Mycoplasma pneumoniae IID817; test: Antimycoplasmal activity, MIC by phenol red colour change, organism No. 28; conditions: Mycoplasma, IID817; Organism No. 28, PPLO broth + 1% glucose, 37° C.; read-out: Minimum Inhibitory Concentration (MIC)
Method: Mycoplasma pneumoniae IID817 was used as the test microorganism in a culture medium prepared by adding 1% of glucose to "PPLO broth (manufactured by Difco Co.) liquid culture medium" at 37° C. with phenol red as an indicator, thereby culturing the test microorganism.

[25] = test system: Candida albicans IAM 4905; test: Antifungal activity, agar-dilution MIC, organism No. 29; conditions: Candida albicans, IAM4905; Organism No. 29, bouillon-agar; read-out: Minimum Inhibitory Concentration
Method in brief: as §1

[26] = test system: Aspergillus niger IFO 6342; test: Antifungal activity, agar-dilution MIC, organism No. 30; conditions: Aspergillus niger, IFO6342; Organism No. 30, bouillon-agar; read-out: Minimum Inhibitory Concentration
Method in brief: as §1

Compound | MIC [1] [µg/mL] | MIC [2] [µg/mL] | MIC [3] [µg/mL] | MIC [4] [µg/mL] | MIC [5] [µg/mL] | MIC [6] [µg/mL] | MIC [7] [µg/mL] | MIC [8] [µg/mL] | MIC (Salmonella typhi 901) [µg/mL] | MIC [9] [µg/mL] | MIC [10] [µg/mL] | MIC [11] [µg/mL] | MIC [12] [µg/mL] | MIC [13] [µg/mL] | MIC [14] [µg/mL] | MIC [15] [µg/mL] | MIC [16] [µg/mL] | MIC [17] [µg/mL] | MIC [18] [µg/mL] | MIC (Proteus vulgaris OX-19) [µg/mL] | other results
[C-]#[N+]C12CC3(/C=C/C(=O)OCc4ccc([N+](=O)[O-])cc4)OC3C1O2 (stereo not drawn) [compound 15] | 25 (≈ 76.2 µM) | 50 (≈ 152 µM) | 25 (≈ 76.2 µM) | 50 (≈ 152 µM) | 50 (≈ 152 µM) | 50 (≈ 152 µM) | 12.5 (≈ 38.1 µM) | 50 (≈ 152 µM) | 25 (≈ 76.2 µM) | 25 (≈ 76.2 µM) | 12.5 (≈ 38.1 µM) | 50 (≈ 152 µM) | > 100 | 50 (≈ 152 µM) | > 100 | > 100 | > 100 | 25 (≈ 76.2 µM) | 100 (≈ 305 µM) | 6.25 (≈ 19 µM) | MIC (Proteus vulgaris HX-19): < 0.1 µg/mL; MIC [19]: > 100 µg/mL; MIC [20]: > 100 µg/mL; MIC (Enterobacter cloacae 963): > 100 µg/mL; MIC [21]: < 0.1 µg/mL; MIC [22]: 50 µg/mL (≈ 152 µM); MIC [23]: 25 µg/mL (≈ 76.2 µM); MIC [24]: 12 µg/mL; MIC [25]: 6.25 µg/mL (≈ 19 µM); MIC [26]: 6.25 µg/mL (≈ 19 µM)
[C-]#[N+]C12CC3(/C=C/C(=O)O)OC3C1O2 (stereo not drawn) [α substituted acrylic acid, β-(4-isocyano-1,2-3,4-diepoxycyclopentyl)acrylic acid, reference compound] | 25 (≈ 129 µM) | 50 (≈ 259 µM) | 25 (≈ 129 µM) | 25 (≈ 129 µM) | 12.5 (≈ 64.7 µM) | 12.5 (≈ 64.7 µM) | 50 (≈ 259 µM) | 12.5 (≈ 64.7 µM) | 6.25 (≈ 32.4 µM) | 12.5 (≈ 64.7 µM) | 12.5 (≈ 64.7 µM) | 3.13 (≈ 16.2 µM) | 50 (≈ 259 µM) | 25 (≈ 129 µM) | 200 (≈ 1040 µM) | 200 (≈ 1040 µM) | 200 (≈ 1040 µM) | 12.5 (≈ 64.7 µM) | 12.5 (≈ 64.7 µM) | 6.25 (≈ 32.4 µM) | MIC (Proteus vulgaris HX-19): 6.25 µg/mL (≈ 32.4 µM); MIC [19]: 50 µg/mL (≈ 259 µM); MIC [20]: 200 µg/mL (≈ 1040 µM); MIC (Enterobacter cloacae 963): 100 µg/mL (≈ 518 µM); MIC [21]: 12.5 µg/mL (≈ 64.7 µM); MIC [22]: 6.25 µg/mL (≈ 32.4 µM); MIC [23]: 50 µg/mL (≈ 259 µM); MIC [24]: < 0.2 µg/mL; MIC [25]: 12.5 µg/mL (≈ 64.7 µM); MIC [26]: 25 µg/mL (≈ 129 µM)
[C-]#[N+]C12CC3(/C=C/C(=O)Nc4ccc(C(C)=O)cc4)OC3C1O2 (stereo not drawn) [compound 80] | 0.39 (≈ 1.26 µM) | 1.56 (≈ 5.03 µM) | 0.78 (≈ 2.51 µM) | 6.25 (≈ 20.1 µM) | > 200 | > 200 | 1.56 (≈ 5.03 µM) | 100 (≈ 322 µM) | 12.5 (≈ 40.3 µM) | 3.13 (≈ 10.1 µM) | 3.13 (≈ 10.1 µM) | 12.5 (≈ 40.3 µM) | > 200 | 6.25 (≈ 20.1 µM) | > 200 | > 200 | > 200 | 6.25 (≈ 20.1 µM) | > 200 | 1.56 (≈ 5.03 µM) | MIC (Proteus vulgaris HX-19): 1.56 µg/mL (≈ 5.03 µM); MIC [19]: > 200 µg/mL; MIC [20]: > 200 µg/mL; MIC (Enterobacter cloacae 963): > 200 µg/mL; MIC [21]: > 200 µg/mL; MIC [22]: 3.13 µg/mL (≈ 10.1 µM); MIC [23]: 1.56 µg/mL (≈ 5.03 µM); MIC [24]: < 0.2 µg/mL; MIC [25]: 0.39 µg/mL (≈ 1.26 µM); MIC [26]: 3.13 µg/mL (≈ 10.1 µM)
[C-]#[N+]C12CC3(/C=C/C(=O)Nc4cccc(OC)c4)OC3C1O2 (stereo not drawn) [compound 54] | 0.39 (≈ 1.31 µM) | 1.56 (≈ 5.23 µM) | 0.2 (≈ 0.67 µM) | 25 (≈ 83.8 µM) | 50 (≈ 168 µM) | 50 (≈ 168 µM) | 0.2 (≈ 0.67 µM) | 6.25 (≈ 21 µM) | 3.13 (≈ 10.5 µM) | 0.78 (≈ 2.61 µM) | 0.39 (≈ 1.31 µM) | 3.13 (≈ 10.5 µM) | 100 (≈ 335 µM) | 3.13 (≈ 10.5 µM) | > 200 | > 200 | > 200 | 0.39 (≈ 1.31 µM) | > 200 | 0.39 (≈ 1.31 µM) | MIC (Proteus vulgaris HX-19): 0.3 µg/mL (≈ 1.01 µM); MIC [19]: 6.25 µg/mL (≈ 21 µM); MIC [20]: > 200 µg/mL; MIC (Enterobacter cloacae 963): > 200 µg/mL; MIC [21]: 0.05 µg/mL (≈ 0.168 µM); MIC [22]: 0.39 µg/mL (≈ 1.31 µM); MIC [23]: 25 µg/mL (≈ 83.8 µM); MIC [24]: < 0.2 µg/mL; MIC [25]: 0.79 µg/mL (≈ 2.65 µM); MIC [26]: 1.56 µg/mL (≈ 5.23 µM)
